Reference: patent US5141627A, “Chelators whose affinity for calcium ion is increased by illumination” (The Regents of the University of California, priority 1989, dated 1992)
“Also recorded” adds a separate entry of the source.

Legend:
REF52 fibroblast cell = experiment: Intracellular free Ca2+ in REF52 fibroblasts on vasopressin stimulation and UV photolysis (fluo-3); format: cell-based, Fisher rat; conditions: for effect of UV photolysis of intracellular chelator on [Ca2+]i (in words): 1 s UV after 50 nM [arg8]-vasopressin
Text: The tetraacetoxymethyl esters of diazo-2 and diazo-3 were synthesized. The acetoxymethyl (AM) groups mask the negative charges on the carboxylate functions, so the AM ester of diazo-2 and diazo-3 can easily diffuse across the cell membrane, which is largely impermeable to ions. Once inside the cell, non-specific esterases in the cell hydrolytically cleave the AM esters and restore diazo-2 and diazo-3 to their tetracarboxylate forms, which being polyanions, are trapped within the cell. […] Prior to the start of data acquisition (t=0), the REF52 fibroblast cell was loaded with diazo-2 and fluo-3. […] Its fluorescence quantum yield is enhanced about 40-fold by Ca^2+ binding, which occurs with a Kd of 400 nM.
Prior to the start of data acquisition, the REF52 fibroblast cell was loaded with fluo-3 and diazo-2 by incubation for 30 min at 25° C. DME medium containing 1 μM diazo-2/AM and 10 μM fluo-3/AM. Acquisition of fluo-3 fluorescence intensity images was begun at time 0. The fluorescence intensity data was converted to intracellular Ca^2+ concentrations using a calibration procedure previously described. The event markers correspond to 1) stimulating the cell with 50 nM [arg^8 ]-vasopressin,and 2) flashing the cell for 1 s with UV light.
The experimental conditions were the same as in (A) except that the cell wa loaded with fluo-3 and diazo-3 (instead of diazo-2) by incubation for 90 min at 25° C. in DME medium containing 10 μm fluo-3/AM and […] diazo-3/AM. The event markers correspond to 1) stimulating the cell with 50 nM [arg^8 ]-vasopressin, and 2) flashing the cell for 1 s of UV light.
For preliminary biological tests, Fisher rat embryo fibroblast of the REF52 cell line were cultured as described by J. P. Y. Kao, et al. (1989).
For testing diazo-2, REF52 cells were incubated for 30 min at 25° C. in Dulbecco's modified Eagle's medium, buffered at pH 7.4 with 20 mM HEPES and containing 1 μM diazo-2/AM and 10 μM fluo-3/AM. For control experiments using diazo-3, the cells were incubated for 90 min at 25° C. in DMEM, buffered to pH 7.4 with 20 mM HEPES and containing 1 μM diazo-3/AM and […] fluo-3/AM. After loading, the cells were gently washed, transferred into Hanks' Balanced Salt Solution containing 0.2 mM sulfinpyrazone to inhibit non-specific organic anion transport (see Tsien, 1989), and mounted on a 25° C. microscope stage for experimentation.
Flash photolysis of trapped cellular diazo-2 and the concomitant monitoring of intracellular free Ca^2+ concentration with fluo-3, a fluorescent Ca^2+ indicator, were performed using methodology and instrumentation described in A. Minta, et al (1989) and J. P. Y. Kao, et al. (1989). Briefly, output form a Xe arc lamp was passed through a monochromator to yield the 490 nm light used to probe the fluo-3 trapped intracellularly. The fluo-3 fluorescence images of cells were recorded using a SIT TV camera. Images were stored on a high-resolution monochrome laser disc recorder (Panasonic TQ-2028) for delayed processing. Photolyses were performed by briefly moving a chopper mirror to send broad-band UV from an XBO 75 W xenon arc lamp and UG-2 filter into the microscope instead of 490 nm fluo-3 excitation. The microscope objective (Nikon UV-CF, 40X) was chosen for its high UV transmission and numerical aperture (1.3). […] The same computer was used to analyze the fluorescence images acquired during the experiment.

[1] = Chemical stability in aqueous base or acid; format: physicochemical
Text: Diazo-2 tetramethyl ester, Compound 3J, was saponified to the tetra-anion by dissolution in methanol (gentle heat), addition of an excess of aqueous 1M potassium hydroxide solution and keeping at room temperature several hours, preferably overnight. […] The purity of diazo-2 solutions can be determined by measuring the extent of absorbance change on complete photolysis (FIG. 1B) as contaminants contribute absorbance at 355 nm. Diazo-1, -3, and -4 esters were saponified analogously.

cells = experiment: Effect in cells of microinjected chelator on Ca2+ after photolysis; format: cell-based; conditions: microinjected into cells
[2] = Ca2+ affinity by UV spectra during titration of EGTA or HEEDTA buffers; format: binding; conditions: after photolysis; 0.25M ionic strength (0.2M KCl, 0.05M NaCl), 18° C.
[3] = Covalent modification of lysine by photochemical intermediates (HPLC); conditions: pH 7.2
Protocol: To study the extent to which biological substrates are covalently modified by reactive intermediates generated by the photolysis of the diazoketones,100 μM diazo-3 in the presence of 10 mM phosphate and either 100 mM KCl or 100 mM lysine.HCl, at pH 7.2 was photolyzed. The photolysates were analyzed by HPLC (Waters Associates, Inc., Milford, Mass.; C-18 column, Supelco, Inc., Bellefonte, Pa.), with 10 mM KH2 PO4 /K2 HPO4 buffer at pH 7.2 as eluting solvent. The absorbance of the eluate at 254 nm was monitored. Before being injected onto the column, concentrated stock solutions of either KCl or lysine.HCl were added to the photolysate to insure that the electrolyte composition of the injected samples were identical. Thus, 10 μL of 1M KCl were added to 100 μL of the samples of diazo-3 photolyzed in lysine.HCl, while 10 μL of 1M lysine.HCl were added to 100 μL of the sample of diazo-3 photolyzed in KCl.

| SMILES | effect of UV photolysis of intracellular chelator on [Ca2+]i (in words) (REF52 fibroblast cell) | [Ca2+]i immediately after photolysis (REF52 fibroblast cell; after 1 s UV, cell stimulated with 50 nM [arg8]-vasopressin, loaded with diazo-2/AM) | stability on concentration to a solid (in words) ([1]; from dilute aqueous base, concentrated to a solid) | stability in dilute aqueous base (in words) ([1]; methanol/aqueous KOH, room temperature, several hours to overnight) | stability in strong aqueous base or acid (in words) ([1]; pH>13 or pH<4) | sequestering Ca2+ after photolysis (in words) (cells) | Kd [2] | covalently modified lysines ([3]; 100 μM diazo-3, 200 mM lysine.HCl (so in the source)) | frequency of covalent lysine modification ([3]; 100 μM diazo-3 photolyzed in 100 mM lysine.HCl) | absorbance under new (lysine-modified) peak ([3]; 100 μM diazo-3 photolyzed in 100 mM lysine.HCl, % of total absorbance) | modified lysine produced ([3]; 100 μM diazo-3 photolyzed in 100 mM lysine.HCl, calculated) |
| --- | --- | --- | --- | --- | --- | --- | --- | --- | --- | --- | --- |
| Cc1ccc(N(CC(=O)O)CC(=O)O)c(OCCOc2cc(C(=O)C=[N+]=[N-])ccc2N(CC(=O)O)CC(=O)O)c1 [diazo-2, 1-(2-bis(carboxymethyl)amino-5-methyl) phenoxy-2-(2-bis(carboxymethyl)amino-5-(diazoacetyl)phenoxy) ethane] | dropped precipitously | about 50 nM | decomposes and becomes light-insensitive | stable | unstable | effective in sequestering Ca^2+ after photolysis | 0.15 µM | – | – | – | – |
| COc1cc(C(=O)C=[N+]=[N-])ccc1N(CC(=O)O)CC(=O)O [diazo-3, 2-methoxy-4-(diazoacetyl)aniline-N, N-diacetic acid] | did not have any effect on the intracellular Ca^2+ concentration; also recorded: no detectable effect on Ca^2+ hemeostasis | – | – | – | – | – | – | 6 lysines in 10^5 | about 6×10^-5 | about 6% | about 6 μM |
